From publication PMC6528465 (ACS infectious diseases, 2018)

System: Mtb K204
Type: cell-based, Mycobacterium tuberculosis
Settings: no inhibitor

For `NC[C@H]1O[C@H](O[C@H]2[C@H](O)[C@@H](O[C@H]3O[C@H](CO)[C@@H](O)[C@H](N)[C@H]3O)[C@H](N)C[C@@H]2N)[C@H](O)[C@@H](O)[C@@H]1O` [KAN, kanamycin], which “K204 MICKAN” value is on record?
The value was >10 µg/mL.
